Among the data in ChEMBL document CHEMBL2424581, “Optimization of phage heptapeptide library-screening process for developing inhibitors of the isocitrate lyase homologue from Mycobacterium tuberculosis” (Med Chem Res, 2013) are IC50 and inhibition values, retold here.

By pIC50 is commonly meant the IC50 on a negative log10 scale, so that one unit is a factor of ten. As a reminder, the inhibition is the change of the read-out against control, counted positive when it falls.

pIC50: −log10 of the molar value.

One assay concerns the target T1, Isocitrate lyase (Mycobacterium tuberculosis, UniProt P9WKK7).
T1 sequence (P9WKK7 whole entry): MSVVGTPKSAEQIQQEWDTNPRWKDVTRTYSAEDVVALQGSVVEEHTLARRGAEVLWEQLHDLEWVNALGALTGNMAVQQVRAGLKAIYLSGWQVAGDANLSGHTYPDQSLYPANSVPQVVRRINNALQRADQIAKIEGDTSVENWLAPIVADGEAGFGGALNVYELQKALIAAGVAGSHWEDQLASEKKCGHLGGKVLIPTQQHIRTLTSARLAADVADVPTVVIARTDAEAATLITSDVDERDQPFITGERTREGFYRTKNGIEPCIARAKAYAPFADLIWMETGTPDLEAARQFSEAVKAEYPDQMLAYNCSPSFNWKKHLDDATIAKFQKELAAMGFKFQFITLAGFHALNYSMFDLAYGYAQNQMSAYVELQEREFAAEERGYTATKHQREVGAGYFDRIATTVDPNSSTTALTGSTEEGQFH
Description: Inhibition of Mycobacterium tuberculosis recombinant isocitrate lyase expressed in Escherichia coli BL21 (DE3) using isocitrate as substrate after 10 mins by spectrometric analysis.

The target of assay [1] is T2, Isocitrate lyase (Mycobacterium tuberculosis) (UniProt P9WKK7).
T2 sequence (whole entry): T1 sequence (P9WKK7 whole entry)
In words: Inhibition of Mycobacterium tuberculosis recombinant isocitrate lyase expressed in Escherichia coli BL21 (DE3) using isocitrate as substrate at 1 mg/mL by spectrometric analysis relative to control.

Turning to `O=C(O)CC[N+](=O)[O-]`, on Isocitrate lyase, the pIC50 was 4.29.

In the case of H-HISHLML-OH, the inhibition in assay [1] came out at 51%. On Isocitrate lyase, the pIC50 was 3.72.

H-HYSSHMR-OH [listing 1 of 2 here]: the pIC50 on Isocitrate lyase was 3.90.

In the case of H-HYSSHMR-OH [listing 2 of 2 here], in assay [1], the inhibition was determined as 72%.

On to H-LTLGPLL-OH, for which the inhibition in assay [1] came out at 55%. The pIC50 at Isocitrate lyase is 3.68.

Regarding H-LTQHLTA-OH, the inhibition in assay [1] amounted to 56%. Besides, on Isocitrate lyase, the pIC50 was 3.67.

Take H-LYALATM-OH: the inhibition in assay [1] was 52%. In addition, the negative logarithm of the IC50 (pIC50) on Isocitrate lyase was 3.69.

Turning to H-NPPERSP-OH, the inhibition in assay [1] came out at 73%. At Isocitrate lyase, the pIC50 was 3.85.

Turning to H-NSSSLAQ-OH, the inhibition in assay [1] was 62%. On Isocitrate lyase, the pIC50 was 3.72.

For the molecule H-QKASPGA-OH, the inhibition in assay [1] turned out to be 73%. Also, the pIC50 on Isocitrate lyase is 3.76.

On to H-SARVTSR-OH [listing 1 of 2 here], for which the pIC50 at Isocitrate lyase was 3.78.

H-SARVTSR-OH [listing 2 of 2 here]: the inhibition in assay [1] is 65%.

H-TELSLPS-OH: in assay [1], the inhibition was 61%. Besides, the negative logarithm of the IC50 (pIC50) at Isocitrate lyase was 3.74.

For H-TMHLSPY-OH, the inhibition in assay [1] was 63%. At Isocitrate lyase, the pIC50 is 3.81.

Turning to H-VTSLKAT-OH, in assay [1], the inhibition was 51%. For the same molecule, on Isocitrate lyase, the pIC50 is 3.64.
